Values joined by “and” are separate entries in the source; they are usually repeats but may differ in a detail not shown here. Equal entries are not always repeated. Where two headings read alike, the source gives them in different places.
What was measured:
recombinant QR2 = molecular target: T1, recombinant QR2 (Homo sapiens, UniProt P16083); experiment: Inhibition of QR2 activity in vitro (absorbance at 365 nm, NmeH/menadione); assay type: biochemical
T1 sequence (P16083 1-231): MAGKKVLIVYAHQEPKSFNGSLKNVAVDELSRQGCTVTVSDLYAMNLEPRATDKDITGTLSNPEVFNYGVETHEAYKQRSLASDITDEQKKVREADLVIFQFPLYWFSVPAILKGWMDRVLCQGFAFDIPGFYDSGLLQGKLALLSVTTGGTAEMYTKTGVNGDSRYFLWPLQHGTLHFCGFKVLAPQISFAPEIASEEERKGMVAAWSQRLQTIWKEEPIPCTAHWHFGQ
Method: Inhibition of QR2 activity by the compounds of the invention was assayed in triplicate with recombinant QR2 (at 96 ng/ml) by measuring the absorbance at 365 nm in a buffer containing 50 Mm Tris-HCl, Ph 8.5, 50 μM NmeH, 20 μM menadione, and 0.1% Triton X-100 as described in Graves et al. (2002) Mol. Pharmacol. 62: 1364-72.

[1] = Signs of toxicity in mice treated in the four day test; assay type: in vivo
Text: (§1) Random-bred Swiss albino mice free of Mycoplasma (Eperythrozoon) coccoides and weighing between 18 and 22 g. were infected via the tail vein on day 0 (D0) and then treated once daily either subcutaneously or orally by gavage for four consecutive days (D0 through D+3). Thin blood films were made from tail blood from groups of untreated controls and from treated animals on D+4.

P. yoelii ssp. NS = experiment: Four day test for blood schizontocidal activity, chloroquine-resistant P. yoelii ssp. NS in mice; assay type: in vivo, Plasmodium yoelii; parameters: ED90: unit not given beside the values; details: for ED50: Plasmodium yoelii
Method: (§2) MEFA which was developed from NS by the 2% relapse technique (Peters, W., Chemotherapy and Drug Resistance in Malaria, 2nd Ed., London, Academic Press, ISBN 0-12-552721-7).
(§3) Blood schizontocidal activity was assessed by the “four day test” essentially as described by Peters, W. and Robinson, B. L. (1999), “Malaria” in Handbook of Animal Models of Infection, Academic Press. The compound was dissolved in dimethyl sulfoxide with the aid of ultrasonification and aqueous dilutions were prepared for use.
as §1

P. yoelii ssp. MEFA = experiment: Four day test for blood schizontocidal activity, mefloquine-resistant P. yoelii ssp. MEFA in mice; assay type: in vivo, Plasmodium yoelii; parameters: ED90: unit not given beside the values; details: for ED50: Plasmodium yoelii
Method: as §2, §3, §1

[2] = system: Plasmodium chabaudi AS line; experiment: Four day test for blood schizontocidal activity, P. chabaudi AS in mice; assay type: in vivo; parameters: ED90: unit not given beside the values; details: for ED50: Plasmodium chabaudi
Method: as §2, §3, §1

[3] = average of the determinations, read-out: IC50 Average
[4] = individual determinations, assay range given, read-out: IC50
[5] = set 1, average, read-out: IC50 Average
[6] = set 2, average, read-out: IC50 Average
[7] = set 2, individual determinations, read-out: IC50
[8] = P. yoelii ssp. MEFA, sc, once daily D0 to D+3, mice

IC50 (recombinant QR2; [3]) | IC50 (recombinant QR2; [4]) | Compound | also measured
3.8 µM | 3.3 µM and 4.7 µM | Clc1ccc2c(NCCc3ccccn3)ccnc2c1 [Compound 2-4] | 
2.7 µM | 2.68 µM and 2.42 µM and 2.86 µM | Oc1ccc(CCNc2ccnc3cc(Cl)ccc23)cc1 [Compound 2-5] | 
 |  | Clc1ccc2c(NCc3ccccn3)ccnc2c1 [Compound 2-17] | IC50 (recombinant QR2; [5]): 0.6 µM; IC50 (recombinant QR2; set 1, individual determinations, read-out: IC50): 0.41 µM and 0.67 µM and 0.72 µM; IC50 (recombinant QR2; [6]): 0.55 µM; IC50 (recombinant QR2; [7]): 0.6 µM and 0.5 µM
3.2 µM | 4.1 µM and 2.2 µM and 3.4 µM | Clc1ccc2c(NC3=NC4C=CC=CC4N3)ccnc2c1 (stereo not drawn) [Compound 2-29] | 
74 µM | 84 µM and 72.2 µM and 65.9 µM | Clc1ccc2c(SCc3ccccn3)ccnc2c1 [Compound 2-33] | 
79.6 µM | 81.5 µM and 79 µM and 78.3 µM | Clc1ccc2c(OCc3ccccn3)ccnc2c1 [Compound 2-34] | 
98 µM | 109 µM and 87 µM | CC(O)CNCCNc1cc(C(F)(F)F)nc2c(C(F)(F)F)cccc12 (stereo not drawn) [Compound 3-3] | 
238 µM | 229 µM and 164 µM and 320 µM | OCCN(CCO)CCCNc1cc(C(F)(F)F)nc2c(C(F)(F)F)cccc12 [Compound 3-4] | 
0.47 µM | 0.34 µM and 0.24 µM and 0.84 µM | COc1cc(NCc2ccccn2)c2ncccc2c1 [Compound 4-1] | 
4.8 µM | 4.5 µM and 4.7 µM and 5.3 µM | COc1cc(NC2CCN(Cc3ccccc3)CC2)c2ncccc2c1 [Compound 4-2] | 
10.2 µM | 9.1 µM and 7.8 µM and 13.7 µM | CCC(CC)(CCC#N)CNc1cc(OC)cc2cccnc12 [Compound 4-3] | 
23 µM | 18.5 µM and 21.7 µM and 28.8 µM | CCN(CC)CCC(C)Nc1cc(OC)cc2cccnc12 (stereo not drawn) [Compound 4-5] | 
1.6 µM | 2.2 µM and 0.89 µM and 1.65 µM | CCN1CCC(Nc2cc(OC)cc3cccnc23)CC1 [Compound 4-8] | 
18.5 µM | 11.6 µM and 27.5 µM and 16.4 µM | CCC(CC)(CCCN)CNc1cc(OC)cc2cccnc12 [Compound 4-9] | 
189 µM | 132 µM and 180 µM and 255 µM | O=[N+]([O-])c1ccc(NCCNc2cc(C(F)(F)F)nc3cc(C(F)(F)F)ccc23)nc1 [Compound 5, N-(2-(5-nitropyridin-2-ylamino)ethyl)-2,7-bis(trifluoromethyl)quinolin-4-amine] | 
43.3 µM | 49.5 µM and 40 µM and 40.3 µM | Clc1ccc2cc(-c3ccccc3)cnc2c1 [Compound 7, 7-chloro-3-phenylquinoline] | 
4.9 µM | 4.2 µM and 4.7 µM and 5.8 µM | COc1ccc2c(ccc[n+]2[O-])c1 [Compound 9, 6-methoxyquinoline N-oxide] | 
 |  | CCN(CC)CCCC(C)Nc1ccnc2cc(Cl)ccc12 (stereo not drawn) [chloroquine, reference compound] | ED90 (P. yoelii ssp. NS; P. yoelii ssp. NS, sc, once daily D0 to D+3, mice): 19.0; ED50 (P. yoelii ssp. NS; sc): 5 mg/kg; IC50 (recombinant QR2; read-out: QR2 IC50): 1 to 5 µM; IC50 (recombinant QR2; [5]): 1.13 µM; IC50 (recombinant QR2; [6]): 4.13 µM; IC50 (recombinant QR2; [7]): 3.99 µM and 4.15 µM and 4.25 µM
 |  | COc1cc(NC(C)CCCN)c2ncccc2c1 (stereo not drawn) [primaquine, reference compound] | IC50 (recombinant QR2; IC50 (μM), individual determinations, assay range given): 14.2 µM and 11 µM and 13.2 µM; IC50 (recombinant QR2; IC50 Average, average of the determinations): 13 µM

Compound | IC50 (recombinant QR2; [3]) | IC50 (recombinant QR2; [4]) | also measured
CNc1ccnc2cc(Cl)ccc12 [Compound 2-39] | 0.13 µM | 0.13 µM and 0.16 µM and 0.09 µM | toxicity ([1]; oral, higher doses): some toxicity was observed at higher doses; overt signs of toxicity ([1]; subcutaneous): No overt signs of toxicity; ED50 (P. yoelii ssp. NS; po): 220 mg/kg; ED50 (P. yoelii ssp. NS; sc): 400 mg/kg; inhibitory activity against resistant strain of P. yoelii (P. yoelii ssp. NS; chloroquine-resistant P. yoelii ssp. NS, result in words): demonstrated inhibitory activity; ED50 (P. yoelii ssp. MEFA; P. yoelii ssp. MEFA, po, once daily D0 to D+3, mice): 190 mg/kg; ED50 (P. yoelii ssp. MEFA; [8]): 320 mg/kg; inhibitory activity against resistant strain of P. yoelii (P. yoelii ssp. MEFA; mefloquine-resistant P. yoelii ssp. MEFA, result in words): demonstrated inhibitory activity; ED50 ([2]; po): 150 mg/kg; ED50 ([2]; sc): 150 mg/kg; activity against the drug-sensitive P. chabaudi AS line ([2]; parenteral and oral, result in words): active both parenterally and orally
OC(c1cc(C(F)(F)F)nc2c(C(F)(F)F)cccc12)C1CCCCN1 (stereo not drawn) [mefloquine, reference compound] | 33 µM | 28 µM and 34.8 µM and 36.5 µM | ED90 (P. yoelii ssp. MEFA; [8]): 100; ED50 (P. yoelii ssp. MEFA; [8]): 20 mg/kg; ED90 ([2]; P. chabaudi AS, sc (subcutaneous injection), once daily D0 to D+3, mice): 3.0; ED50 ([2]; P. chabaudi AS, sc (subcutaneous injection), once daily D0 to D+3, mice, read-out: ED50): 1.5 mg/kg

From patent US20060074105A1, “Substituted quinoline and quinazoline inhibitors of quinone reductase 2” (Serenex, Inc., priority 2004, published 2006)
